Data published in patent US6355799B1, “Substituted benzene compounds, process for their preparation, and herbicidal and defoliant compositions containing them” (ISK Americas Incorporated, priority 1997, dated 2002).

Assays:
Type in all cases: in vivo
[1] = system: field corn (Zea mays L., var. Dekalb 535, CORN); test: Pre-emerge test, crop safety; conditions: pre-emerge, 14 days after application, rating scale 0-100
In short: (§1)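 Sandy loam pots; pre-emerge: sown 1 d pre-spray, surface-watered after, then bottom-watered. Post-emerge: sown 8–21 d before, 2–3 leaf stage, + 0.25% v/v NIS, bottom-watered. Acetone, 187 l/ha track spray, 15–1000 g ai/ha. 0–100 injury score, day 14.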

[2] = system: upland rice (Oryza sp., var. Tebonnet, RICE); test: Pre-emerge test, crop safety; conditions: pre-emerge, 14 days after application, rating scale 0-100
In short: as §1

[3] = system: green foxtail (Setaria viridis, SETVI); test: Pre-emerge test, greenhouse herbicide activity screening; conditions: pre-emerge, 14 days after application, rating scale 0-100
In short: (§2)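 Compounds in acetone were track-sprayed at 187 l/ha, 15–1000 g ai/ha, onto sandy loam pots. Pre-emerge seeds were sown one day before spraying, with surface watering afterwards. Post-emerge plants were at the 2–3 leaf stage and sprayed with 0.25% v/v non-ionic surfactant. Injury was rated 0–100 at 14 days.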

[4] = system: large crabgrass (Digitaria sanguinalis, DIGSA); test: as above; conditions: pre-emerge, 14 days after application, rating scale 0-100
In short: as §2

[5] = system: velvetleaf (Abutilon theophrasti, ABUTH); test: as above; conditions: pre-emerge, 14 days after application, rating scale 0-100
In short: as §2

[6] = system: ivyleaf morningglory (Ipomoea hederacea, IPOHE); test: as above; conditions: pre-emerge, 14 days after application, rating scale 0-100
In short: as §2

[7] = system: sicklepod (Cassia obtusifolia, CASOB); test: as above; conditions: pre-emerge, 14 days after application, rating scale 0-100
In short: as §2

[8] = system: lambsquarters (Chenopodium album, CHEAL); test: as above; conditions: pre-emerge, 14 days after application, rating scale 0-100
In short: as §2

[9] = system: barnyardgrass (Echinochloa crus-galli, ECHCG); test: as above; conditions: pre-emerge, 14 days after application, rating scale 0-100
In short: as §2

[10] = system: johnsongrass (Sorghum halepense, SORHA); test: as above; conditions: pre-emerge, 14 days after application, rating scale 0-100
In short: as §2

[11] = system: redroot pigweed (Amaranthus retroflexus, AMARE); test: as above; conditions: pre-emerge, 14 days after application, rating scale 0-100
In short: (§3)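 Plants grown in 10 cm pots of sandy loam mix received acetone-dissolved compounds through a moving flat-fan nozzle. Doses ranged from 15 to 1000 g ai/ha. Pre-emerge pots were seeded one day earlier, post-emerge pots 8–21 days earlier. Fourteen days on, each pot was graded 0–100 for damage.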

[12] = system: green foxtail (Setaria viridis, SETVI); test: Post-emerge test, greenhouse herbicide activity screening; conditions: post-emerge, 14 days after application, rating scale 0-100
In short: as §3

[13] = system: large crabgrass (Digitaria sanguinalis, DIGSA); test: as above; conditions: post-emerge, 14 days after application, rating scale 0-100
In short: as §3

[14] = system: velvetleaf (Abutilon theophrasti, ABUTH); test: as above; conditions: post-emerge, 14 days after application, rating scale 0-100
In short: as §3

[15] = system: ivyleaf morningglory (Ipomoea hederacea, IPOHE); test: as above; conditions: post-emerge, 14 days after application, rating scale 0-100
In short: as §3

[16] = system: sicklepod (Cassia obtusifolia, CASOB); test: as above; conditions: post-emerge, 14 days after application, rating scale 0-100
In short: as §3

[17] = system: lambsquarters (Chenopodium album, CHEAL); test: as above; conditions: post-emerge, 14 days after application, rating scale 0-100
In short: as §3

[18] = system: barnyardgrass (Echinochloa crus-galli, ECHCG); test: as above; conditions: post-emerge, 14 days after application, rating scale 0-100
In short: as §3

[19] = system: johnsongrass (Sorghum halepense, SORHA); test: as above; conditions: post-emerge, 14 days after application, rating scale 0-100
In short: as §3

[20] = system: redroot pigweed (Amaranthus retroflexus, AMARE); test: as above; conditions: post-emerge, 14 days after application
In short: as §3

[21] = system: field corn (Zea mays L., var. Dekalb 535, CORN); test: Post-emerge test, crop safety; conditions: post-emerge, 14 days after application, rating scale 0-100
In short: as §2

[22] = system: upland rice (Oryza sp., var. Tebonnet, RICE); test: Post-emerge test, crop safety; conditions: post-emerge, 14 days after application, rating scale 0-100
In short: as §2

[23] = 63 g ai/ha, rating scale 0-100 (0 no damage, 100 complete death)
[24] = 250 g ai/ha, rating scale 0-100

COc1c(Cl)cc(F)c(-n2c(=O)cc(C(F)(F)F)n(C)c2=O)c1Sc1ccc2ccccc2c1 [17-4]
60: phytotoxicity rating ABUTH ([5]; 250 g ai/ha)
10: phytotoxicity rating RICE ([2]; 250 g ai/ha) | phytotoxicity rating DIGSA ([4]; 250 g ai/ha) | phytotoxicity rating IPOHE ([6]; 250 g ai/ha) | phytotoxicity rating CASOB ([7]; 250 g ai/ha) | Post-emerge Herbicidal Activity CASOB (phytotoxicity rating) ([16]; 63 g ai/ha)
30: phytotoxicity rating AMARE ([11]; 63 g ai/ha)
0: phytotoxicity rating CORN ([1]; 63 g ai/ha) | phytotoxicity rating CORN ([1]; 250 g ai/ha) | phytotoxicity rating RICE ([2]; 63 g ai/ha) | phytotoxicity rating SETVI ([3]; 63 g ai/ha) | phytotoxicity rating DIGSA ([4]; 63 g ai/ha) | phytotoxicity rating ABUTH ([5]; 63 g ai/ha) | phytotoxicity rating IPOHE ([6]; 63 g ai/ha) | phytotoxicity rating CASOB ([7]; 63 g ai/ha) | phytotoxicity rating ECHCG ([9]; 63 g ai/ha) | phytotoxicity rating ECHCG ([9]; 250 g ai/ha) | phytotoxicity rating SORHA ([10]; 63 g ai/ha) | phytotoxicity rating SORHA ([10]; 250 g ai/ha) | Post-emerge Herbicidal Activity SETVI (phytotoxicity rating) ([12]; 63 g ai/ha) | Post-emerge Herbicidal Activity SETVI (phytotoxicity rating) ([12]; 250 g ai/ha) | Post-emerge Herbicidal Activity DIGSA (phytotoxicity rating) ([13]; 63 g ai/ha) | Post-emerge Herbicidal Activity DIGSA (phytotoxicity rating) ([13]; 250 g ai/ha) | Post-emerge Herbicidal Activity ECHCG (phytotoxicity rating) ([18]; 63 g ai/ha) | Post-emerge Herbicidal Activity ECHCG (phytotoxicity rating) ([18]; 250 g ai/ha) | Post-emerge Herbicidal Activity SORHA (phytotoxicity rating) ([19]; 63 g ai/ha) | Post-emerge Herbicidal Activity SORHA (phytotoxicity rating) ([19]; 250 g ai/ha) | Post-emerge Herbicidal Activity CORN (crop damage rating) ([21]; 63 g ai/ha) | Post-emerge Herbicidal Activity CORN (crop damage rating) ([21]; 250 g ai/ha) | Post-emerge Herbicidal Activity RICE (crop damage rating) ([22]; 63 g ai/ha) | Post-emerge Herbicidal Activity RICE (crop damage rating) ([22]; 250 g ai/ha)
70: phytotoxicity rating CHEAL ([8]; 250 g ai/ha) | Post-emerge Herbicidal Activity ABUTH (phytotoxicity rating) ([14]; 250 g ai/ha) | Post-emerge Herbicidal Activity AMARE (phytotoxicity rating) [20, 24]
40: Post-emerge Herbicidal Activity CHEAL (phytotoxicity rating) ([17]; 250 g ai/ha)
80: Post-emerge Herbicidal Activity IPOHE (phytotoxicity rating) ([15]; 250 g ai/ha)
20: phytotoxicity rating SETVI ([3]; 250 g ai/ha) | phytotoxicity rating CHEAL ([8]; 63 g ai/ha) | Post-emerge Herbicidal Activity IPOHE (phytotoxicity rating) ([15]; 63 g ai/ha) | Post-emerge Herbicidal Activity CASOB (phytotoxicity rating) ([16]; 250 g ai/ha) | Post-emerge Herbicidal Activity CHEAL (phytotoxicity rating) ([17]; 63 g ai/ha) | Post-emerge Herbicidal Activity AMARE (phytotoxicity rating) [20, 23]
100: phytotoxicity rating AMARE ([11]; 250 g ai/ha)
35: Post-emerge Herbicidal Activity ABUTH (phytotoxicity rating) ([14]; 63 g ai/ha)

COc1c(Cl)cc(F)c(-n2c(=O)cc(C(F)(F)F)n(C)c2=O)c1SCCO [17-5]
70: Post-emerge Herbicidal Activity IPOHE (phytotoxicity rating) ([15]; 250 g ai/ha)
10: phytotoxicity rating RICE ([2]; 250 g ai/ha) | Post-emerge Herbicidal Activity CASOB (phytotoxicity rating) ([16]; 63 g ai/ha) | Post-emerge Herbicidal Activity AMARE (phytotoxicity rating) [20, 23] | Post-emerge Herbicidal Activity CORN (crop damage rating) ([21]; 250 g ai/ha)
90: phytotoxicity rating CHEAL ([8]; 63 g ai/ha)
60: phytotoxicity rating DIGSA ([4]; 250 g ai/ha) | phytotoxicity rating ABUTH ([5]; 63 g ai/ha)
100: phytotoxicity rating ABUTH ([5]; 250 g ai/ha) | phytotoxicity rating CHEAL ([8]; 250 g ai/ha) | phytotoxicity rating AMARE ([11]; 250 g ai/ha)
35: phytotoxicity rating IPOHE ([6]; 250 g ai/ha)
80: phytotoxicity rating AMARE ([11]; 63 g ai/ha) | Post-emerge Herbicidal Activity ABUTH (phytotoxicity rating) ([14]; 250 g ai/ha) | Post-emerge Herbicidal Activity CHEAL (phytotoxicity rating) ([17]; 250 g ai/ha)
40: Post-emerge Herbicidal Activity CHEAL (phytotoxicity rating) ([17]; 63 g ai/ha) | Post-emerge Herbicidal Activity AMARE (phytotoxicity rating) [20, 24]
30: phytotoxicity rating IPOHE ([6]; 63 g ai/ha) | phytotoxicity rating CASOB ([7]; 250 g ai/ha) | Post-emerge Herbicidal Activity IPOHE (phytotoxicity rating) ([15]; 63 g ai/ha)
50: phytotoxicity rating SETVI ([3]; 250 g ai/ha) | Post-emerge Herbicidal Activity ABUTH (phytotoxicity rating) ([14]; 63 g ai/ha)
20: phytotoxicity rating SORHA ([10]; 250 g ai/ha) | Post-emerge Herbicidal Activity CASOB (phytotoxicity rating) ([16]; 250 g ai/ha)
0: phytotoxicity rating CORN ([1]; 63 g ai/ha) | phytotoxicity rating CORN ([1]; 250 g ai/ha) | phytotoxicity rating RICE ([2]; 63 g ai/ha) | phytotoxicity rating SETVI ([3]; 63 g ai/ha) | phytotoxicity rating DIGSA ([4]; 63 g ai/ha) | phytotoxicity rating CASOB ([7]; 63 g ai/ha) | phytotoxicity rating ECHCG ([9]; 63 g ai/ha) | phytotoxicity rating ECHCG ([9]; 250 g ai/ha) | phytotoxicity rating SORHA ([10]; 63 g ai/ha) | Post-emerge Herbicidal Activity SETVI (phytotoxicity rating) ([12]; 63 g ai/ha) | Post-emerge Herbicidal Activity SETVI (phytotoxicity rating) ([12]; 250 g ai/ha) | Post-emerge Herbicidal Activity DIGSA (phytotoxicity rating) ([13]; 63 g ai/ha) | Post-emerge Herbicidal Activity DIGSA (phytotoxicity rating) ([13]; 250 g ai/ha) | Post-emerge Herbicidal Activity ECHCG (phytotoxicity rating) ([18]; 63 g ai/ha) | Post-emerge Herbicidal Activity ECHCG (phytotoxicity rating) ([18]; 250 g ai/ha) | Post-emerge Herbicidal Activity SORHA (phytotoxicity rating) ([19]; 63 g ai/ha) | Post-emerge Herbicidal Activity SORHA (phytotoxicity rating) ([19]; 250 g ai/ha) | Post-emerge Herbicidal Activity CORN (crop damage rating) ([21]; 63 g ai/ha) | Post-emerge Herbicidal Activity RICE (crop damage rating) ([22]; 63 g ai/ha) | Post-emerge Herbicidal Activity RICE (crop damage rating) ([22]; 250 g ai/ha)
